Data reported in patent US5874405A, “Heat shock protein peptides that share sequences with cyclic nucleotide phosphodiesterase and methods for modulating autoimmune central nervous system disease” (priority 1994, dated 1999).
Where no end group is shown, it is not given here.

Tested on: antibodies in cerebrospinal fluid (CSF) and sera
Assay: Dot-blot analysis of CSF and sera for antibodies to CNP 173-184 peptide
Type: binding, human
Settings: for patients whose CSF had antibodies to the peptide: data not shown
Protocol: Cerebrospinal fluid (CSF) and sera from MS patients and controls were analyzed for antibodies to the peptide derived from CNP isoform 2 (corresponding to amino acids 173-184) using dot-blot analyses. Samples from nine MS patients and five patients with other neurologic diseases (OND) were analyzed. The CNP 173-184 peptide coupled to BSA was adsorbed onto nitrocellulose membranes. Control wells received BSA alone. Two dilutions of paired spinal fluids and sera were added to the wells and the amount of antibody binding determined using peroxidase labeled anti-human IgG and an enhanced chemiluminescent assay (ECL Western Blotting Kit; Amersham International, Plc., Buckinghamshire, England). Using the public domain program, Image 1.40 (available from NIH), the integrated densities of the dots in the CNP 173-184 peptide wells and BSA wells were determined.

LKKLKPGLEKDF [CNP 173-184 peptide]
patients whose CSF had antibodies to the peptide (MS patients): 5/9 | patients whose CSF had antibodies to the peptide (OND patients): 0/5 | densities in peptide wells relative to BSA wells (MS CSF): approximately twofold | number of patients with antibodies in sera (MS patients): 3 | number of patients with antibodies in sera (OND patients): 1
